Key:
Type in all cases: cell-based, human
[1] = tested on: newly synthesized frataxin mRNA; assay: Nascent frataxin transcripts (EU metabolic labeling, Click-iT capture, real-time PCR) in HEK293-fxn; settings: 10 μM, 4 or 8 hours
Excerpt: We then investigated whether the observed increase in frataxin protein levels is due to an upregulation of the frataxin mRNA, either promoted by an increase in the […] rate of frataxin mRNA or by its stabilization. To understand whether etravirine promotes de novo synthesis of frataxin mRNA, we metabolically labeled nascent transcripts through the incorporation of 5-ethynyl uridine (EU). Through a click chemistry-based reaction, biotin was then conjugated to EU-labelled transcripts, thus allowing selective isolation and analysis of newly synthesized mRNA. We therefore quantitatively analyzed the relative amount of newly synthesized frataxin mRNA in etravirine-treated HEK293-fxn cells, compared to untreated control cells. […] We then analyzed the effect of etravirine on the decay of frataxin transcript observed upon treatment with actinomycin. HEK293-fxn cells were treated with actinomycin for 4, 8 or 12 hours in the presence or absence of etravirine and frataxin mRNA was quantitated by RT-PCR.
HEK 293-fxn stably expressing frataxin (A), HEK 293 (B), or FRDA lymphoblast cell line GM16203 (C) were treated with 10 μM etravirine for the indicated time points. Protein extracts were resolved on SDS-PAGE and analyzed by western blot with anti-frataxin antibody and anti-tubulin as a loading control. Etr: etravirine; tub: tubulin; fxn pre: frataxin precursor. […]

mature frataxin = assay: Western blot of frataxin in primary fibroblasts derived from FRDA patients; settings: 300 nM etravirine, 24 hours
Protocol: Lymphoblastoid cell lines from one healthy subject [GM16215] and 7 FRDA patients [GM16228, GM16203, GM16214, GM16223, GM16210, GM16205, GM16216], and primary fibroblasts from 2 FRDA patients [GM02816 and GM04078], were obtained from NIGMS Human Genetic Cell Repository, Coriell Institute for Medical Research (Camden, N.J., USA). Lymphoblasts and fibroblasts were grown at 37° C. and 5% CO2 and were respectively cultured in RPMI or DMEM, supplemented with 15% FBS, […] penicillin/streptomycin and 2 mM L-glutamine.
For the validation steps, etravirine (TMC125) was purchased from Selleckchem and was dissolved in DMSO at a stock concentration of 10 mM. […]
(§1) Total cell extracts were prepared in lysis buffer (50 mM Tris-HCl, pH 7.5, 150 mM NaCl, 1% Igepal CA-630, 5 mM EDTA, 5 mM EGTA) supplemented with complete protease inhibitor cocktail (Roche Diagnostics, Indianapolis, Ind., USA). […] The immunoreactive bands were detected by ECL (GE Healthcare, Chalfont St. Giles, UK) and imaged with a ChemiDoc XRS system (Bio-Rad). […] All values are expressed as means±1 S.E.M.
We chose the minimal effective dose (300 nM) to evaluate the efficacy of etravirine over a broad range of cells derived from FRDA patients. In particular, we analysed 7 lymphoblastoid cell lines derived from FRDA patients and primary fibroblasts derived from two different FRDA patients. […]

frataxin precursor = assay: Western blot of frataxin in HEK293 Flp-In cells stably transfected with frataxin (HEK293-fxn)
Protocol: For the validation steps, etravirine (TMC125) was purchased from Selleckchem and was dissolved in DMSO at a stock concentration of 10 mM. HEK-293 Flp-In cells, stably overexpressing frataxin, were treated with the drug (or only DMSO) for 24 hours at final concentration of 10 μM. FRDA cells were treated with different concentration of etravirine. For all drug (and no drug) treatments, the final concentration of DMSO in the cell culture medium was 0.1%.
as §1
The identified candidate drugs were individually validated for their ability to promote frataxin accumulation in different cell types. […] Protein extracts from the cell lines were resolved on SDS-PAGE and analyzed by western blot with anti-frataxin antibody and anti-tubulin as a loading control. […]
HEK 293-fxn stably expressing frataxin (A), HEK 293 (B), or FRDA lymphoblast cell line GM16203 (C) were treated with 10 μM etravirine for the indicated time points. Protein extracts were resolved on SDS-PAGE and analyzed by western blot with anti-frataxin antibody and anti-tubulin as a loading control. […] Quantitative analysis of newly-synthesized FXN mRNA was performed by metabolic labeling of nascent RNA using the Click-iT Nascent RNA Capture Kit (Life Technologies), followed by biotin conjugation and isolation with streptavidin beads, according to provider instructions. Nascent frataxin transcripts levels were quantitated by real-time PCR relative to the expression of the control genes ACTB, GUSB and ATP5J. […] Relative levels of total frataxin mRNA were measured by real-time PCR and normalized on expression levels of three control genes ATP5J, GUSB and ACTB using the ΔΔCt method. […]

Cc1cc(C#N)cc(C)c1Oc1nc(Nc2ccc(C#N)cc2)nc(N)c1Br [etravirine]
relative amount of newly synthesized frataxin mRNA vs untreated control cells [1]: did not observe any difference | average fold increase in mature frataxin levels (mature frataxin; GM03816 fibroblasts (380 GAA repeats)): 1.65 fold | average fold increase in mature frataxin levels (mature frataxin; GM04078 fibroblasts (541 GAA repeats)): 1.71 fold | increase in frataxin precursor levels (densitometric ratio frataxin precursor/tubulin) (frataxin precursor; HEK293-fxn, 10 μM of each candidate drug, 24 h): striking upregulation | amount of frataxin precursor (frataxin precursor; HEK293-fxn, etravirine at 10 (μM), detectable after 4 hours, higher after 12 hours): rapid and robust increase | frataxin accumulation compared with MG132 treatment (frataxin precursor; etravirine vs general proteasome inhibitor MG132, cell system not stated): strikingly stronger
